This note sets out measurements from article PMC10135567, “New Indole-3-Propionic Acid and 5-Methoxy-Indole Carboxylic Acid Derived Hydrazone Hybrids as Multifunctional Neuroprotectors” (Antioxidants, 2023).

For data set [1], the system named is bEnd3 monolayer. Nature of the data set: Permeability assay, static BBB model of bEnd3 monolayer (streptavidin-HRP passage). As to conditions: 90 min. It counts as cell-based, mouse. Here is the method:
To evaluate the compounds’ effect on a BBB model, bEnd3 endothelial cells were seeded on polycarbon (PC) cell-culture inserts with 0.4 µm pore size (cat. no. 1CH3.1, BRAND GMBH + CO KG, Wertheim, Germany) and a density of 5.6 × 10^3 cells/insert. The inserts were placed in a 24-well plate containing 1 mL of cell-culture medium. […] On the second day of incubation, the cell-culture medium was refreshed. To ensure 100% confluence, the inserts were evaluated for medium leakage before the experiment. […] Following the incubation, the inserts were placed in a new 24-well plate containing 1 mL Phenol Red free–DMEM (cat. no. D1145, Sigma-Aldrich Co. LLC, St. Louis, MO, USA) without serum. In the upper chamber, a solution of streptavidin, conjugated with horse-radish peroxidase (HRP, cat. no. SA00001-0, Proteintech, Rosemont, Illinois, USA) (1:1000) in serum-free phenol red medium was added. The cells were further incubated for 5 min at 37 °C and 5% CO2, after which the inserts were removed. The remaining medium in the 24-well plate was collected and vortexed briefly, and 3 × 50 µL aliquots were transferred into a 96-well plate. A total of 50 µL TMB Signal+ substrate solution (BUF054A, Bio-Rad, Hercules, CA, USA) was added to each well and incubated for 5 min at 37 °C. The HRP converted the TMB to a blue-colored product. To stop the reaction, 50 µL of 0.2 N H2SO4 was added that caused the blue color to turn yellow. […] Each condition was tested at least twice.
To further explore the neuroprotective effect of the compounds, we tested their ability to influence the BBB and its permeability, utilizing a static BBB model with brain microvascular endothelial cell line bEnd3 [36], as it would be essential for the compounds to pass the BBB and protect the neuronal cells. In addition to their endothelial origin, the bEnd3 cells were strongly connected by specific proteins (ZO-1, claudin-5) forming tight junctions (TJs). This was crucial for preventing unregulated […] transport and sustaining the apical–basal polarity of the monolayer. Here, we determined any changes in the permeability of the BBB by imitating an endothelial barrier via a static BBB model of bEnd3 cells (Figure 11a,c,e). This allowed us to determine the possibility of drug passage. It should be noted, that even though drug passage was desirable, any irreversible modifications of the cell monolayer and the TJs were considered threatening. Therefore, in parallel to the permeability tests, the bEnd3 cells were stained for TJ-formation and ZO-1 distribution (Figure 11b,d,f).

Data set [2] in a line: Fe(II)-induced lipid peroxidation assay (LP assay, TBARS). It counts as biochemical. The following applies: 90 µM, lecithin 1 mg/mL, 0.1 mM FeCl2; lower = stronger antioxidant. The method, then: The lipid peroxidation assay and a modification of the deoxyribose-degradation assay were used. Two types of measurement compositions in phosphate buffer (PB–K2HPO4/KH2PO4, pH 7.4) were prepared for both tests: (i) samples, containing the biologically relevant molecules (lecithin emulsion or deoxyribose), iron, and the tested hydrazones at the concentrations indicated below the figures; and (ii) controls, in which the tested hydrazones were omitted. The data for the sample activity were presented as a percentage of the control measurement.
The thiobarbituric-acid reactive-substance colorimetric test was performed in a model system of Fe(II)-induced lipid peroxidation as an emulsion prepared from egg yolk phospholipids. Each sample contained 1 mg/mL of lecithin. LP was initiated using 0.1 mM FeCl2. After 30 min incubation at 37 °C, 0.5 mL of 2.8% trichloroacetic acid solution and 0.5 mL of 0.5% thiobarbituric acid solution were added, following a second incubation at 100 °C for 20 min. Centrifugation at 3000 rpm for 20 min at 4 °C was performed, and we determined the absorbance value of the supernatant at 532 nm via Shimadzu UV-1601 UV-VIS spectrophotometer.

In data set [3] the test system is zonula occludens-1 (ZO-1), tight junctions between bEnd3 cells. The data set can be described thus: Immunofluorescence of ZO-1 (tight junctions) in bEnd3 cells. It counts as cell-based, mouse. The following applies: 90 min. Here is the method: Immunofluorescence of zonula occludens-1 (ZO-1) was performed to determine the in vitro effect of the compounds on tight junctions (TJs) between bEnd3 cells. The experiment was conducted simultaneously with the permeability assay. Briefly, cells were seeded on cover slides in 24-well plates at a concentration of 3.5 × 10^4 cells/well and incubated for 3–4 d at 37 °C and 5% CO2 in a humidified atmosphere, until they reached 100% confluence. The cells were then treated with 10 and 50 µM concentrations of the compounds for 90 min. After the allotted treatment time, the cells were fixed with ice-cold acetone at −20 °C for 10 min; blocked with 1% bovine serum albumin (BSA, cat. no. 9048-46-8, Acros Organics, Thermo Fischer Scientific, Waltham, MA, USA) in PBS, containing 0.1% Tween® 20 (cat. no. P1379, Sigma-Aldrich Co. LLC, St. Louis, MO, USA); and labeled with anti-ZO-1 (rabbit polyclonal antibody, 1:500, cat. no. ab96587, Abcam, Cambridge, UK) at 4 °C overnight. The slides were then incubated with a secondary donkey anti-rabbit Alexa Fluor™ 555 antibody (1:1000, cat. no. 4413S, Molecular Probes, Thermo Fischer Scientific, Waltham, MA, USA) for 1 h at room temperature (RT) in the dark. […] Fluorescence microscopy was performed on a spinning disk confocal microscope system (Andor Dragonfly 505, Oxford Instruments, Abingdon, UK) with 60 × oil NA 1.4 objective, with em./ex. = 561/617 nm for ZO-1 and 405/445 nm for DAPI. The obtained data were analyzed with Fiji and compiled via the FigureJ plugin [46].
To further explore the neuroprotective effect of the compounds, we tested their ability to influence the BBB and its permeability, utilizing a static BBB model with brain microvascular endothelial cell line bEnd3 [36], as it would be essential for the compounds to pass the BBB and protect the neuronal cells. […] Here, we determined any changes in the permeability of the BBB by imitating an endothelial barrier via a static BBB model of bEnd3 cells (Figure 11a,c,e). […]

Data set [4] deals with isolated rat-brain synaptosomes. The data set can be described thus: 6-OHDA-induced neurotoxicity in isolated rat synaptosomes, GSH level. As to conditions: 10 µM pre-incubation 30 min, then 150 µM 6-OHDA 1 h. It is filed as cell-based. Here is the method: This neurotoxicity model was based on the metabolism and auto-oxidation of 6-hydroxy dopamine responsible for the reactive oxygen species and quinones generation, ultimately leading to neurotoxicity and neurodegeneration. The experiment was performed by pre-incubation of the synaptosomes with 10 µM of the compounds for 30 min, followed by the addition of 150 µM 6-hydroxy dopamine for induction of neurotoxicity. After 1 h, they were centrifuged twice for 1 min at 15,000 × g. After the second wash, the precipitates were resolved with buffer B and glucose.

For `COc1cc(C=NNC(=O)CCc2c[nH]c3ccccc23)ccc1O` [Compound 3d, N′-(4-Hydroxy-3-methoxybenzylidene)-3-(1H-indol-3-yl)propanehydrazide], the “change of permeability of bEnd3 monolayer vs. control (in words)” value (“change” for short) in data set [1] (50 µM) is “increased the permeability”.

`COc1cc(C=NNC(=O)CCc2c[nH]c3ccccc23)cc(OC)c1O` [Compound 3f, N′-(4-Hydroxy-3,5-dimethoxybenzylidene)-3-(1H-indol-3-yl)propanehydrazide]: the “absorbance ratio sample/control (lipid peroxidation)” value (“absorbance ratio sample/control” below) in data set [2] is recorded as “below 65%”. In addition, the “increase in the permeability of bEnd3 monolayer” value in data set [1] (10 µM) is on record as 0.5 times. Besides, the “change” value in data set [1] (50 µM) is “increased the permeability”.

`COc1ccc2[nH]c(C(=O)NN=Cc3cccc(O)c3O)cc2c1` [Compound 5a, N′-(2,3-Dihydroxybenzylidene)-5-methoxy-1H-indole-2-carbohydrazide]: the “effect on tight junctions (ZO-1 distribution)” value (shortened to “effect on tight junctions”) in data set [3] (10 µM) is listed as “without affecting the TJs”. For the same compound, the “change” value is recorded as “passage through the BBB model was induced” in data set [1] (10 µM) and “reduced the permeability” in data set [1] (50 µM). For the same compound, in data set [4], the “GSH level preserved, as compared to 6-OHDA” value came out at 40%.

With `COc1ccc2[nH]c(C(=O)NN=Cc3ccc(O)c(O)c3)cc2c1` [Compound 5b, N′-(3,4-Dihydroxybenzylidene)-5-methoxy-1H-indole-2-carbohydrazide], the “effect on tight junctions” value in data set [3] (10 µM) was “without affecting the TJs”. Besides, the “change” value in data set [1] (10 µM) is on record as “passage through the BBB model was induced”; in data set [1] (50 µM), “reduced the permeability”.

`COc1ccc2[nH]c(C(=O)NN=Cc3ccc(O)cc3O)cc2c1` [Compound 5c, N′-(2,4-Dihydroxybenzylidene)-5-methoxy-1H-indole-2-carbohydrazide]: the “absorbance ratio sample/control” value in data set [2] was “about 45%”. Also, the “change” value in data set [1] (50 µM) is “reduced the permeability”.

Take `COc1ccc2[nH]c(C(=O)NN=Cc3ccc(O)c(OC)c3)cc2c1` [Compound 5d, N′-(4-Hydroxy-3-methoxybenzylidene)-5-methoxy-1H-indole-2-carbohydrazide]: the “change” value in data set [1] (10 µM) is listed as “decreased it”. Further, in data set [4], the “GSH level preserved, as compared to 6-OHDA” value amounted to 40%.

Take `COc1ccc(C=NNC(=O)c2cc3cc(OC)ccc3[nH]2)c(O)c1` [Compound 5e, N′-(2-Hydroxy-4-methoxybenzylidene)-5-methoxy-1H-indole-2-carbohydrazide]: in data set [2], the “absorbance ratio sample/control” value was “about 45%”. Moreover, in data set [3] (10 and 50 µM), the “effect on tight junctions” value is on record as “appears to disrupt TJs”.

`COc1ccc2[nH]c(C(=O)NN=Cc3cc(OC)c(O)c(OC)c3)cc2c1` [Compound 5f, N′-(4-Hydroxy-3,5-dimethoxybenzylidene)-5-methoxy-1H-indole-2-carbohydrazide]: in data set [2], the “absorbance ratio sample/control” value is “about 45%”. Further, the “change” value in data set [1] (10 µM) is on record as “decreased it”.

As for `COc1ccc2[nH]cc(CCNC(C)=O)c2c1` [Melatonin], the “influence on the permeability of the monolayer (in words)” value in data set [1] (10 or 50 µM) is “did not influence the permeability”. The “GSH level preserved, as compared to 6-OHDA” value in data set [4] is 90%.

“N′-(4-Hydroxy-2-methoxybenzylidene)-3-(1H-indol-3-yl)propanehydrazide [Compound 3e]”: in data set [1] (50 µM), the “change” value is on record as “increased the permeability”.
